Laboratory results reported in US20210346419A1, “COMPOSITIONS AND METHODS FOR DIAGNOSIS AND TREATMENT OF CONDITIONS RELATED TO THE QUALITY OF AGING AND LONGEVITY” (EPITRACKER, INC., priority 2019, published 2021).

Tests used:
[1] = system: BT human cell system; assay: BioMAP Diversity PLUS primary human cell phenotypic profiling, BT system; format: cell-based; conditions: 6.7 and/or 20 μM, 24 to 72 hours
From the text: (§1) It was hypothesized that, given the compounds' associations with lower risks of comorbidities of aging in long-lived dolphins, the compounds of the embodiments would have relevant activities in human cell systems mimicking conditions related to the quality of aging and longevity. To test this hypothesis, 12 primary human cell systems from the BioMAP Diversity PLUS® panel (Eurofins/DiscoverX, Fremont, Calif.) mimicking inflammation and fibrosis relevant to chronic inflammation, liver disease, respiratory disease, skin disease, wound healing, scarring, allergies, asthma, autoimmune disease, cancer, and cardiovascular disease, were exposed to pure, synthetic forms of the selected compounds at one or two concentrations (6.7 and/or 20 μM). Quantitative measurements of 148 biomarker activities across this broad panel, along with comparative analysis of biological activities from known bioactive agents, were used to predict and compare the efficacy and function of the targeted compounds across these systems compared to non-treated control systems. Activated BioMAP systems were incubated with the targeted compounds for 24 to 72 hours. Biomarker activities were considered significant when biomarker values were outside of the 95th percentile significance envelope and had at least one concentration with an effect size >20% (log 10 ratio) >0.1. FIG. 2 describes the different cell systems.
(§2) The summary is of relevant diseases and tissues treated with selected compounds at 6.7 to 20 μM, based on primary human cell phenotypic profiling.

[2] = system: HDF3CGF human cell system; assay: BioMAP Diversity PLUS primary human cell phenotypic profiling, HDF3CGF system; format: cell-based; conditions: 6.7 and/or 20 μM, 24 to 72 hours
From the text: as §1, §2

[3] = system: MyoF human cell system; assay: BioMAP Diversity PLUS primary human cell phenotypic profiling, MyoF system; format: cell-based; conditions: 6.7 and/or 20 μM, 24 to 72 hours
From the text: as §1, §2

[4] = system: 4H human cell system; assay: BioMAP Diversity PLUS primary human cell phenotypic profiling, 4H system; format: cell-based; conditions: 6.7 and/or 20 μM, 24 to 72 hours
From the text: as §1, §2

[5] = system: SAg human cell system; assay: BioMAP Diversity PLUS primary human cell phenotypic profiling, SAg system; format: cell-based; conditions: 6.7 and/or 20 μM, 24 to 72 hours; for Proliferation, Log10 ratio of treated vs. non-treated systems: T cell proliferation
From the text: as §1, §2

[6] = system: BE3C human cell system; assay: BioMAP Diversity PLUS primary human cell phenotypic profiling, BE3C system; format: cell-based; conditions: 6.7 and/or 20 μM, 24 to 72 hours
From the text: as §1, §2

[7] = system: 3C human cell system; assay: BioMAP Diversity PLUS primary human cell phenotypic profiling, 3C system; format: cell-based; conditions: 6.7 and/or 20 μM, 24 to 72 hours
From the text: as §1, with “cell systems. […]” for “cell systems.”

[8] = system: KF3CT human cell system; assay: BioMAP Diversity PLUS primary human cell phenotypic profiling, KF3CT system; format: cell-based; conditions: 6.7 and/or 20 μM, 24 to 72 hours
From the text: as §1, §2

[9] = system: CASM3C human cell system; assay: BioMAP Diversity PLUS primary human cell phenotypic profiling, CASM3C system; format: cell-based; conditions: coronary artery smooth muscle cell proliferation, 6.7 and/or 20 μM, 24 to 72 hours
From the text: as §1, with “cell systems. […]” for “cell systems.”

[10] = system: LPS human cell system; assay: BioMAP Diversity PLUS primary human cell phenotypic profiling, LPS system; format: cell-based; conditions: 6.7 and/or 20 μM, 24 to 72 hours
From the text: as §1, §2

[11] = system: /Mphg human cell system; assay: BioMAP Diversity PLUS primary human cell phenotypic profiling, /Mphg system; format: cell-based; conditions: 6.7 and/or 20 μM, 24 to 72 hours
From the text: as §1, §2

[12] = system: BF4T human cell system; assay: BioMAP Diversity PLUS primary human cell phenotypic profiling, BF4T system; format: cell-based; conditions: 6.7 and/or 20 μM, 24 to 72 hours
From the text: as §1, with “cell systems. […]” for “cell systems.”

[13] = room temperature; cited from earlier work

N=C(N)NCCCC(=O)O [4-guanidinobutanoate]
IL-17A (sIL-17A), Log10 ratio of treated vs. non-treated systems [1]: −0.17 | TNF-α (sTNF-α), Log10 ratio of treated vs. non-treated systems [1]: −0.10 | sIgG, Log10 ratio of treated vs. non-treated systems [1]: −0.49 | CXCL10, Log10 ratio of treated vs. non-treated systems [2]: −0.11 | CXCL11, Log10 ratio of treated vs. non-treated systems [2]: −0.19 | Collagen III, Log10 ratio of treated vs. non-treated systems [2]: −0.23 | Proliferation, Log10 ratio of treated vs. non-treated systems [2]: −1.09 | TIMP-1, Log10 ratio of treated vs. non-treated systems [2]: −0.14 | VCAM-1 (VCAM1), Log10 ratio of treated vs. non-treated systems [2]: −0.19 | Collagen IV, Log10 ratio of treated vs. non-treated systems [3]: 0.13 | MCP-1, Log10 ratio of treated vs. non-treated systems [4]: −0.12 | CD38, Log10 ratio of treated vs. non-treated systems [5]: −0.10 | Proliferation, Log10 ratio of treated vs. non-treated systems [5]: −0.13

CC(=O)N[C@H](C(=O)O)[C@@H](C)O [N-acetylthreonine]
sIgG, Log10 ratio of treated vs. non-treated systems [1]: −0.41 | VEGFR2, Log10 ratio of treated vs. non-treated systems [4]: −0.16

Nc1ncnc2c1ncn2[C@@H]1O[C@H](CSCC[C@H](N)C(=O)O)[C@@H](O)[C@H]1O [S-adenosylhomocysteine (SAH), S-adenosylhomocysteine]
sIgG, Log10 ratio of treated vs. non-treated systems [1]: −0.29 | CXCL8, Log10 ratio of treated vs. non-treated systems [6]: −0.13 | CXCL11, Log10 ratio of treated vs. non-treated systems [6]: −0.13 | HLA-DR, Log10 ratio of treated vs. non-treated systems [6]: −0.13 | MMP-9, Log10 ratio of treated vs. non-treated systems [6]: −0.24 | Proliferation, Log10 ratio of treated vs. non-treated systems ([7]; endothelial cell proliferation): −0.27 | CXCL10, Log10 ratio of treated vs. non-treated systems [2]: −0.19 | CXCL11, Log10 ratio of treated vs. non-treated systems [2]: −0.25 | Collagen III, Log10 ratio of treated vs. non-treated systems [2]: −0.21 | M-CSF, Log10 ratio of treated vs. non-treated systems [2]: −0.19 | MCP-1, Log10 ratio of treated vs. non-treated systems [2]: −0.14 | PAI-1, Log10 ratio of treated vs. non-treated systems [2]: −0.23 | Proliferation, Log10 ratio of treated vs. non-treated systems [2]: −1.10 | TIMP-1, Log10 ratio of treated vs. non-treated systems [2]: −0.14 | VCAM-1 (VCAM1), Log10 ratio of treated vs. non-treated systems [2]: −0.17 | Alpha-SM actin, Log10 ratio of treated vs. non-treated systems [3]: −0.18 | Collagen I, Log10 ratio of treated vs. non-treated systems [3]: −0.15 | Collagen III, Log10 ratio of treated vs. non-treated systems [3]: −0.27 | Collagen IV, Log10 ratio of treated vs. non-treated systems [3]: 0.31 | VCAM-1, Log10 ratio of treated vs. non-treated systems [3]: −0.12 | Proliferation, Log10 ratio of treated vs. non-treated systems [5]: −0.21 | MMP-9, Log10 ratio of treated vs. non-treated systems [8]: −0.10 | PAI-1, Log10 ratio of treated vs. non-treated systems [8]: −0.28

C[C@H](CCC(=O)O)[C@H]1CC[C@H]2[C@@H]3[C@H](O)C[C@@H]4C[C@H](O)CC[C@]4(C)[C@H]3CC[C@]12C [chenodeoxycholate]
CXCL8, Log10 ratio of treated vs. non-treated systems [5]: −0.10

C[C@H](CCC(=O)O)[C@H]1CC[C@H]2[C@@H]3[C@H](O)C[C@@H]4C[C@H](O)CC[C@]4(C)[C@H]3C[C@H](O)[C@]12C [cholate]
MMP-1, Log10 ratio of treated vs. non-treated systems [6]: −0.10

N[C@@H](CCC(=O)N[C@@H](Cc1c[nH]cn1)C(=O)O)C(=O)O [gamma-glutamylhistidine]
TNF-α (sTNF-α), Log10 ratio of treated vs. non-treated systems [1]: −0.18 | MMP-1, Log10 ratio of treated vs. non-treated systems [6]: −0.10 | Tissue factor, Log10 ratio of treated vs. non-treated systems [7]: −0.12 | Proliferation, Log10 ratio of treated vs. non-treated systems [9]: 0.11 | CD40, Log10 ratio of treated vs. non-treated systems [10]: −0.11 | E-selectin, Log10 ratio of treated vs. non-treated systems [10]: −0.11 | CXCL8, Log10 ratio of treated vs. non-treated systems [11]: −0.15

O=C(O)CNC(=O)c1ccccc1 [hippurate]
MMP-1, Log10 ratio of treated vs. non-treated systems [6]: −0.11 | P-selectin, Log10 ratio of treated vs. non-treated systems [4]: −0.10 | Proliferation, Log10 ratio of treated vs. non-treated systems [9]: −0.10 | CD40, Log10 ratio of treated vs. non-treated systems [10]: −0.11 | CXCL8, Log10 ratio of treated vs. non-treated systems [11]: −0.12

O[C@H]1[C@H](O)[C@@H](O)[C@H](O)[C@@H](O)[C@H]1O [myo-inositol]
IL-17A (sIL-17A), Log10 ratio of treated vs. non-treated systems [1]: −0.12 | TNF-α (sTNF-α), Log10 ratio of treated vs. non-treated systems [1]: −0.21 | sIL-2, Log10 ratio of treated vs. non-treated systems [1]: −0.16 | sIL-17F, Log10 ratio of treated vs. non-treated systems [1]: −0.15 | sIgG, Log10 ratio of treated vs. non-treated systems [1]: −0.62 | CXCL8, Log10 ratio of treated vs. non-treated systems [6]: −0.26 | CXCL10, Log10 ratio of treated vs. non-treated systems [6]: −0.58 | CXCL11, Log10 ratio of treated vs. non-treated systems [6]: −0.28 | EGFR, Log10 ratio of treated vs. non-treated systems [6]: −0.11 | HLA-DR, Log10 ratio of treated vs. non-treated systems [6]: −0.10 | ICAM-1, Log10 ratio of treated vs. non-treated systems [6]: −0.11 | MMP-9, Log10 ratio of treated vs. non-treated systems [6]: −0.25 | PAI-1, Log10 ratio of treated vs. non-treated systems [6]: −0.18 | Collagen III, Log10 ratio of treated vs. non-treated systems [3]: −0.11 | Collagen IV, Log10 ratio of treated vs. non-treated systems [3]: 0.24 | VCAM-1, Log10 ratio of treated vs. non-treated systems [3]: −0.11 | MCP-1, Log10 ratio of treated vs. non-treated systems [4]: −0.13 | Eotaxin-3, Log10 ratio of treated vs. non-treated systems [12]: −0.19 | MCP-1, Log10 ratio of treated vs. non-treated systems [12]: −0.21 | Proliferation, Log10 ratio of treated vs. non-treated systems [5]: −0.20 | CXCL10, Log10 ratio of treated vs. non-treated systems [8]: −0.26 | IL-1α, Log10 ratio of treated vs. non-treated systems [8]: −0.11 | MMP-9, Log10 ratio of treated vs. non-treated systems [8]: −0.18 | PAI-1, Log10 ratio of treated vs. non-treated systems [8]: −0.27 | IL-1α, Log10 ratio of treated vs. non-treated systems [11]: −0.10

COc1cc(C(O)C(=O)O)ccc1O (stereo not shown) [vanillylmandelate (VMA), vanillylmandelate]
CXCL8, Log10 ratio of treated vs. non-treated systems [11]: −0.18

O=c1[nH]c(=O)c2ncn([C@@H]3O[C@H](CO)[C@@H](O)[C@H]3O)c2[nH]1 [xanthosine]
Physical state and stability [13]: solid that is stable at room temperature | CD40, Log10 ratio of treated vs. non-treated systems [10]: −0.12 | Tissue factor, Log10 ratio of treated vs. non-treated systems [10]: −0.13 | CXCL8, Log10 ratio of treated vs. non-treated systems [11]: −0.13
